Measurements reported in patent US20220313698A1, “MODULATORS OF CYSTIC FIBROSIS TRANSMEMBRANE CONDUCTANCE REGULATOR” (Vertex Pharmaceuticals Incorporated, priority 2019, published 2022).

Target: CFTR-mediated chloride transport (Homo sapiens, UniProt P13569)
Assay: Corrector Assay A - membrane potential dye assay (enteroid cells)
Conditions: for Corrector Assay A % activity: % of chloride transport of triple combination control (1 μM (14S)-dispiro macrocycle + 3 μM tezacaftor + 300 nM ivacaftor); for EC50: read-out: Corrector Assay A EC50, human intestinal enteroid cells, 18-24 h incubation, acute 10 μM forskolin + 300 nM ivacaftor
Procedure: Base medium (ADF+++) consisted of Advanced DMEM/Ham's F12, 2 mM Glutamax, 10 mM HEPES, 1 μg/ml penicillin/streptomycin.
Intestinal enteroid maintenance medium (IEMM) consisted of ADF+++, 1×B27 supplement, 1×N2 supplement, 1.25 mM N-acetyl cysteine, 10 mM Nicotinamide, 50 ng/mL hEGF, 10 nM Gastrin, 1 μg/mL hR-spondin-1, 100 ng/mL hNoggin, TGF-b type 1 inhibitor A-83-01, 100 μg/mL Primocin, 10 μM P38 MAPK inhibitor SB202190.
Bath 1 Buffer consisted of 1 mM MgCl2, 160 mM NaCl, 4.5 mM KCl, 10 mM HEPES, 10 mM Glucose, 2 mM CaCl2).
Chloride Free Buffer consisted of 1 mM Magnesium Gluconate, 2 mM Calcium Gluconate, 4.5 mM Potassium Gluconate, 160 mM Sodium Gluconate, 10 mM HEPES, 10 mM Glucose.
Bath 1 Dye Solution consisted of Bath 1 Buffer, 0.04% Pluronic F127, 20 μM Methyl Oxonol, 30 μM CaCCinh-A01, 30 μM Chicago Sky Blue.
Chloride Free Dye Solution consisted of Chloride Free Buffer, 0.04% Pluronic F127, 20 μM Methyl Oxonol, 30 μM CaCCinh-A01, 30 μM Chicago Sky Blue.
Chloride Free Dye Stimulation Solution consisted of Chloride Free Dye Solution, 10 μM forskolin, 100 μM IBMX, and 300 nM Ivacaftor.
Cells were recovered in cell recovery solution, collected by centrifugation at 650 rpm for 5 min at 4° C., resuspended in TryPLE and incubated for 5 min at 37° C. Cells were then collected by centrifugation at 650 rpm for 5 min at 4° C. and resuspended in IEMM containing 10 μM ROCK inhibitor (RI). The cell suspension was passed through a 40 μm cell strainer and resuspended at 1×10^6 cells/mL in IEMM containing 10 μM RI. Cells were seeded at 5000 cells/well into multi-well plates and incubated for overnight at 37° C., 95% humidity and 5% CO2 prior to assay.
Briefly, cells were washed 5 times in Bath 1 Buffer. Bath 1 Dye Solution was added and the cells were incubated for 25 min at room temperature. Following dye incubation, cells were washed 3 times in Chloride Free Dye Solution. Chloride transport was initiated by addition of Chloride Free Dye Stimulation Solution and the fluorescence signal was read for 15 min. The CFTR-mediated chloride transport for each condition was determined from the AUC of the fluorescence response to acute forskolin and 300 nM N-[2,4-bis(1,1-dimethylethyl)-5-hydroxyphenyl]-1,4-dihydro-4-oxoquinoline-3-carboxamide stimulation. Chloride transport was then expressed as a percentage of the chloride transport following treatment with 1 μM (14S)-8-[3-(2-{Dispiro[2.0.2.1]heptan-7-yl}ethoxy)-1H-pyrazol-1-yl]-12,12-dimethyl-2λ^6-thia-3,9,11,18,23-pentaazatetracyclo[17.3.1.111,14.05,10]tetracosa-1(22),5,7,9,19(23),20-hexaene-2,2,4-trione, 3 μM (R)-1-(2,2-difluorobenzo[d][1,3]dioxol-5-yl)-N-(1-(2,3-dihydroxypropyl)-6-fluoro-2-(1-hydroxy-2-methylpropan-2-yl)-1H-indol-5-yl)cyclopropanecarboxamide and 300 nM acute N-[2,4-bis(1,1-dimethylethyl)-5-hydroxyphenyl]-1,4-dihydro-4-oxoquinoline-3-carboxamide triple combination control (% Activity).

Row | Corrector Assay A % activity | EC50 [nM] | Compound
1 | +++ (+++ is >60%) | < 1000 | CC(C)(C)c1ccc2c(n1)N1C[C@@H](CCC(C3CCN(C(=O)OCc4ccccc4)CC3)Nc3cccc(n3)S(=O)(=O)NC2=O)CC1(C)C (single isomer, unassigned) [Compound 255]
2 | ++ (++ is 30-60%) | < 1000 | CC(C)(C)c1ccc2c(n1)N1CC(CCCOc3cccc(c3)S(=O)(=O)NC2=O)CC1(C)C (single isomer, unassigned) [Compound 256, 8-tert-butyl-12,12-dimethyl-18-oxa-2λ^6-thia-3,9,11-triazatetracyclo[17.3.1.111,14.05,10]tetracosa-1(22),5,7,9,19(23),20-hexaene-2,2,4-trione]
3 | + (+ is <30%) |  | CC(C)(C)c1ccc2c(n1)N1CC(CCCOc3cccc(c3)S(=O)(=O)NC2=O)CC1(C)C (single isomer, unassigned) [Compound 257, 8-tert-Butyl-12,12-dimethyl-18-oxa-2λ^6-thia-3,9,11-triazatetracyclo[17.3.1.111,14.05,10]tetracosa-1(22),5,7,9,19(23),20-hexaene-2,2,4-trione]
4 | + (+ is <30%) |  | CC(C)(C)c1ccc2c(n1)N1CC(CC1(C)C)OCCNc1cccc(n1)S(=O)(=O)NC2=O (single isomer, unassigned) [Compound 258, 8-tert-butyl-12,12-dimethyl-15-oxa-2λ^6-thia-3,9,11,18,23-pentaazatetracyclo[17.3.1.111,14.05,10]tetracosa-1(22),5(10),6,8,19(23),20-hexaene-2,2,4-trione]
5 | ++ (++ is 30-60%) | < 1000 | CC(C)(C)c1ccc2c(n1)N1CC(CC1(C)C)OCCNc1cccc(n1)S(=O)(=O)NC2=O (single isomer, unassigned) [Compound 259, 8-tert-Butyl-12,12-dimethyl-15-oxa-2λ^6-thia-3,9,11,18,23-pentaazatetracyclo[17.3.1.111,14.05,10]tetracosa-1(22),5(10),6,8,19(23),20-hexaene-2,2,4-trione]
6 | + (+ is <30%) | < 1000 | CN1c2cccc(n2)S(=O)(=O)NC(=O)c2ccc(C(C)(C)C)nc2N2C[C@@H](CCC1c1ccccc1)CC2(C)C (single isomer, unassigned) [Compound 261]
7 | +++ (+++ is >60%) | < 1000 | CC1(C)CCCc2cc3c(nc21)N1C[C@@H](CCC(c2ccccn2)Nc2cccc(n2)S(=O)(=O)NC3=O)CC1(C)C (single isomer, unassigned) [Compound 263]
8 | ++ (++ is 30-60%) | < 1000 | CC1(C)CCCc2cc3c(nc21)N1C[C@@H](CCC(c2ccccn2)Nc2cccc(n2)S(=O)(=O)NC3=O)CC1(C)C (single isomer, unassigned) [Compound 264]
9 | + (+ is <30%) |  | CC(C)(C)c1ccc2c(n1)N1CC(CCN(c3ccccc3)C(=O)c3cccc(c3)S(=O)(=O)NC2=O)CC1(C)C (single isomer, unassigned) [Compound 266, 8-tert-butyl-12,12-dimethyl-17-phenyl-2λ^6-thia-3,9,11,17-tetraazatetracyclo[17.3.1.111,14.05,10]tetracosa-1(22),5,7,9,19(23),20-hexaene-2,2,4,18-tetrone]
10 | + (+ is <30%) | > 3000 | CC(C)(C)c1ccc2c(n1)N1CC(CCN(c3ccccc3)C(=O)c3cccc(c3)S(=O)(=O)NC2=O)CC1(C)C (single isomer, unassigned) [Compound 267, 8-tert-Butyl-12,12-dimethyl-17-phenyl-2λ^6-thia-3,9,11,17-tetraazatetracyclo[17.3.1.111,14.05,10]tetracosa-1(22),5,7,9,19(23),20-hexaene-2,2,4,18-tetrone]
11 | +++ (+++ is >60%) | < 1000 | CC(C)(C)c1ccc2c(n1)N1C[C@@H](CC[C@@H](C3CCOCC3)Nc3cccc(n3)S(=O)(=O)NC2=O)CC1(C)C (single isomer, unassigned) [Compound 268]
12 | ++ (++ is 30-60%) | < 1000 | CC(C)(C)c1ccc2c(n1)N1C[C@@H](CC[C@@H](C3CCOCC3)Nc3cccc(n3)S(=O)(=O)NC2=O)CC1(C)C (single isomer, unassigned) [Compound 269]
13 | + (+ is <30%) |  | CC(C)CN1c2cccc(n2)S(=O)(=O)NC(=O)c2ccc(C(C)(C)C)nc2N2C[C@@H](CCC1c1ccccc1)CC2(C)C (single isomer, unassigned) [Compound 270]
14 | + (+ is <30%) |  | CC(C)CN1c2cccc(n2)S(=O)(=O)NC(=O)c2ccc(C(C)(C)C)nc2N2C[C@@H](CC[C@H]1c1ccccc1)CC2(C)C (single isomer, unassigned) [Compound 271]
15 | +++ (+++ is >60%) | < 1000 | CC1CCC2CN(c3nc(C(C)(C)C)ccc3C(=O)NS(=O)(=O)c3ccn1n3)C(C)(C)C2 (single isomer, unassigned) [Compound 272]
16 | ++ (++ is 30-60%) | 1000 to 3000 | CC1CCC2CN(c3nc(C(C)(C)C)ccc3C(=O)NS(=O)(=O)c3ccn1n3)C(C)(C)C2 (single isomer, unassigned) [Compound 273]
17 | ++ (++ is 30-60%) | < 1000 | CC(C)(C)c1ccc2c(n1)N1C[C@@H](CCC(c3ccccc3)n3ccc(n3)S(=O)(=O)NC2=O)CC1(C)C (single isomer, unassigned) [Compound 274]
18 | ++ (++ is 30-60%) | < 1000 | CC(C)(C)c1ccc2c(n1)N1C[C@@H](CCC(c3ccccc3)n3ccc(n3)S(=O)(=O)NC2=O)CC1(C)C (single isomer, unassigned) [Compound 275]

Row | Corrector Assay A % activity | EC50 [nM] | Compound
19 | ++ (++ is 30-60%) | < 1000 | COC[C@@H]1CC[C@@H]2CN(c3nc(C(C)(C)C)ccc3C(=O)NS(=O)(=O)c3cccc(n3)N1)C(C)(C)C2 (single isomer, unassigned) [Compound 276]
20 | +++ (+++ is >60%) | < 1000 | COC[C@@H]1CC[C@@H]2CN(c3nc(C(C)(C)C)ccc3C(=O)NS(=O)(=O)c3cccc(n3)N1)C(C)(C)C2 (single isomer, unassigned) [Compound 277]
21 | ++ (++ is 30-60%) | < 1000 | Cn1ccc(C2CC[C@@H]3CN(c4nc(C(C)(C)C)ccc4C(=O)NS(=O)(=O)c4cccc(n4)N2)C(C)(C)C3)n1 (single isomer, unassigned) [Compound 278]
22 | +++ (+++ is >60%) | < 1000 | Cn1ccc(C2CC[C@@H]3CN(c4nc(C(C)(C)C)ccc4C(=O)NS(=O)(=O)c4cccc(n4)N2)C(C)(C)C3)n1 (single isomer, unassigned) [Compound 279]
23 | +++ (+++ is >60%) | < 1000 | Cn1cc(C2CC[C@@H]3CN(c4nc(C(C)(C)C)ccc4C(=O)NS(=O)(=O)c4cccc(n4)N2)C(C)(C)C3)cn1 (single isomer, unassigned) [Compound 280]
24 | +++ (+++ is >60%) | < 1000 | Cn1cc(C2CC[C@@H]3CN(c4nc(C(C)(C)C)ccc4C(=O)NS(=O)(=O)c4cccc(n4)N2)C(C)(C)C3)cn1 (single isomer, unassigned) [Compound 281]
25 | +++ (+++ is >60%) | < 1000 | CC(C)(C)c1ccc2c(n1)N1C[C@@H](CCC(c3cccnc3)Nc3cccc(n3)S(=O)(=O)NC2=O)CC1(C)C (single isomer, unassigned) [Compound 282]
26 | +++ (+++ is >60%) | < 1000 | CC(C)(C)c1ccc2c(n1)N1C[C@@H](CCC(c3cccnc3)Nc3cccc(n3)S(=O)(=O)NC2=O)CC1(C)C (single isomer, unassigned) [Compound 283]
27 | ++ (++ is 30-60%) | < 1000 | Cn1nccc1C1CC[C@@H]2CN(c3nc(C(C)(C)C)ccc3C(=O)NS(=O)(=O)c3cccc(n3)N1)C(C)(C)C2 (single isomer, unassigned) [Compound 284]
28 | +++ (+++ is >60%) | < 1000 | Cn1nccc1C1CC[C@@H]2CN(c3nc(C(C)(C)C)ccc3C(=O)NS(=O)(=O)c3cccc(n3)N1)C(C)(C)C2 (single isomer, unassigned) [Compound 285]
29 | +++ (+++ is >60%) | < 1000 | CC(C)C1CC[C@@H]2CN(c3nc(C(C)(C)C)ccc3C(=O)NS(=O)(=O)c3cccc(n3)N1)C(C)(C)C2 (single isomer, unassigned) [Compound 286]
30 | +++ (+++ is >60%) | < 1000 | CC(C)C1CC[C@@H]2CN(c3nc(C(C)(C)C)ccc3C(=O)NS(=O)(=O)c3cccc(n3)N1)C(C)(C)C2 (single isomer, unassigned) [Compound 287]
31 | +++ (+++ is >60%) | < 1000 | CC(C)COc1cc(F)cc(-c2ccc3c(n2)N2C[C@@H](CCC(c4ccccn4)Nc4cccc(n4)S(=O)(=O)NC3=O)CC2(C)C)c1 (single isomer, unassigned) [Compound 351]
32 | ++ (++ is 30-60%) | < 1000 | CC(C)COc1cc(F)cc(-c2ccc3c(n2)N2C[C@@H](CCC(c4ccccn4)Nc4cccc(n4)S(=O)(=O)NC3=O)CC2(C)C)c1 (single isomer, unassigned) [Compound 352]
33 | +++ (+++ is >60%) | < 1000 | CC(C)C1CC[C@@H]2CN(c3nc(-n4ccc(OCCC5C6(CC6)C56CC6)n4)ccc3C(=O)NS(=O)(=O)c3cccc(n3)N1)C(C)(C)C2 (single isomer, unassigned) [Compound 353]
34 | +++ (+++ is >60%) | < 1000 | CC(C)C1CC[C@@H]2CN(c3nc(-n4ccc(OCCC5C6(CC6)C56CC6)n4)ccc3C(=O)NS(=O)(=O)c3cccc(n3)N1)C(C)(C)C2 (single isomer, unassigned) [Compound 354]
35 | +++ (+++ is >60%) | < 1000 | CC(C)C1CC[C@@H]2CN(c3nc(-n4ccc(OCCC5(C(F)(F)F)CC5)n4)ccc3C(=O)NS(=O)(=O)c3cccc(n3)N1)C(C)(C)C2 (single isomer, unassigned) [Compound 357]
